We go through three molecules from the NIST ThermoML archive (doi:10.1021/je400336p).

The data set can be described thus: xn = mol fraction of the nth substance listed. Particulars: Fluid (supercritical or subcritical phases), Taylor dispersion method, x1 = 0.

Molecules are shown by their SMILES.

As to `CC(C)Cc1ccccc1` [(2-methylpropyl)benzene] + O=C=O, the binary diffusion coefficient (313 K, 15000 kPa) stood at 1.02e-08 m2/s; the binary diffusion coefficient (313 K, 20000 kPa) is 9.12e-09 m2/s; the binary diffusion coefficient (313 K, 25000 kPa) came out at 8.35e-09 m2/s; the binary diffusion coefficient (313 K, 30000 kPa) was determined as 7.6e-09 m2/s; the binary diffusion coefficient (313 K, 35000 kPa) was 7.28e-09 m2/s; the binary diffusion coefficient (323 K, 15000 kPa) was 1.24e-08 m2/s. Further, the binary diffusion coefficient is, setting by setting: (323 K, 20000 kPa) 1.03e-08 m2/s; (323 K, 25000 kPa) 9.43e-09 m2/s; (323 K, 30000 kPa) 8.64e-09 m2/s; (323 K, 35000 kPa) 8.07e-09 m2/s; (333 K, 15000 kPa) 1.4e-08 m2/s; (333 K, 20000 kPa) 1.24e-08 m2/s. Also, the binary diffusion coefficient was determined as 1.07e-08 m2/s (333 K, 25000 kPa); 9.88e-09 m2/s (333 K, 30000 kPa); 9.37e-09 m2/s (333 K, 35000 kPa).
`CC(C)CCc1ccccc1` [(3-methylbutyl)benzene] + O=C=O: the binary diffusion coefficient came out at 9.63e-09 m2/s (313 K, 15000 kPa); 8.71e-09 m2/s (313 K, 20000 kPa); 7.72e-09 m2/s (313 K, 25000 kPa); 7.24e-09 m2/s (313 K, 30000 kPa); 6.79e-09 m2/s (313 K, 35000 kPa); 1.11e-08 m2/s (323 K, 15000 kPa). Besides, the binary diffusion coefficient is 9.92e-09 m2/s (323 K, 20000 kPa); 8.94e-09 m2/s (323 K, 25000 kPa); 8.4e-09 m2/s (323 K, 30000 kPa); 7.57e-09 m2/s (323 K, 35000 kPa); 1.32e-08 m2/s (333 K, 15000 kPa); 1.16e-08 m2/s (333 K, 20000 kPa). Moreover, the binary diffusion coefficient is, setting by setting: (333 K, 25000 kPa) 1.02e-08 m2/s; (333 K, 30000 kPa) 9.21e-09 m2/s; (333 K, 35000 kPa) 8.62e-09 m2/s.
As to `CCC(C)c1ccccc1` (stereo not given) [(1-methylpropyl)benzene] + O=C=O, the binary diffusion coefficient was 1.01e-08 m2/s (313 K, 15000 kPa); 9.15e-09 m2/s (313 K, 20000 kPa); 8.18e-09 m2/s (313 K, 25000 kPa); 7.54e-09 m2/s (313 K, 30000 kPa); 7.24e-09 m2/s (313 K, 35000 kPa); 1.2e-08 m2/s (323 K, 15000 kPa). Further, the binary diffusion coefficient stood at 1.02e-08 m2/s (323 K, 20000 kPa); 9.3e-09 m2/s (323 K, 25000 kPa); 8.54e-09 m2/s (323 K, 30000 kPa); 8.07e-09 m2/s (323 K, 35000 kPa); 1.32e-08 m2/s (333 K, 15000 kPa); 1.19e-08 m2/s (333 K, 20000 kPa). In addition, the binary diffusion coefficient was 1.04e-08 m2/s (333 K, 25000 kPa); 9.49e-09 m2/s (333 K, 30000 kPa); 8.98e-09 m2/s (333 K, 35000 kPa).
